Data from US20110318738A1, “IDENTIFICATION AND REGULATION OF A NOVEL DNA DEMETHYLASE SYSTEM” (University of Utah Research Foundation, priority 2008, published 2011).

How the values were obtained:
zebrafish embryos = test: Whole mount in situ hybridization for neuronal markers in morpholino-injected embryos; assay type: in vivo; conditions: morpholino injected at single-cell stage, 24 hpf; for Sox-2: embryos showing positive staining for the marker: Control Mo 97%; for Neurogenin-1: embryos showing positive staining for the marker: Control Mo 100%
Procedure: Wild-type zebrafish (Tuebingen strain) were maintained in a 14 hr:10 hr light:dark cycle in a Z-Mod at 28.5° C. Embryos were injected at single-cell stage and then grown in a 28.5° C. incubator. Morpholinos were obtained from Gene-tools LLC Ltd. For these experiments, morpholino sequences were designed against the following:
Whole mount in situ hybridization was performed as described earlier in Rai et al., 2006 with digoxigenin (Roche) labeled probes against neurogenin-1 and sox-2.
To address whether AID/Apobec enzymes, Gadd45, or zebrafish Mbd4 have a role in the control of DNA methylation during normal zebrafish development, a subset of the enzyme family members were knocked down (by morpholino injection) and their impact on development was examined. Either AID, Gadd45α, or Mbd4 knockdown caused the loss of neurons at 24 hpf, shown by the absence of pro-neuronal markers such as neurogenin-1 or sox-2. […] As neurons form in mice lacking Mbd4 (or AID), zebrafish may rely more on these proteins for neurogenesis than do mice, or alternatively, neurogenesis in zebrafish may be more sensitive to misregulation of DNA methylation levels. […] The percentage listed depicts embryos showing positive staining for the marker indicated.

[1] = tested on: apc^mcr zebrafish embryos; test: Whole mount in situ hybridization in apc mutant embryos; conditions: for irbp (% of embryos): apc^sib 96%; for gadd45α expression (% of embryos) / aid expression (% of embryos): apc^wt + DMSO 94%; for gadd45α expression (% of embryos): apc^mcr + DMSO 9%; for aid expression (% of embryos): apc^mcr + DMSO 17%; for mbd4 expression (% of embryos): apc^wt + DMSO 95%, apc^mcr + DMSO 3%
[2] = tested on: apc^mcr zebrafish embryos; test: Quantitative RT-PCR in apc mutant embryos after drug treatment; assay type: in vivo; conditions: for expression of aid, gadd45α and mbd4: all-trans retinoic acid 1 μM or NS-398 10 μM, FIG. 11A
Procedure: Quantitative RT-PCR primers for amplification of zebrafish rdh1l (Nadauld et al., 2005), human DHRS9 (Jette et al., 2004) 28S rRNA (Eisinger et al., 2006), and h18S rRNA (Delaunay et al., 2000) were described previously, and are (hereby incorporated by reference in its entirety into this application). A template-free negative control was included in each experiment.
(§1) RNA from embryos or human adenoma tissues was isolated using Trizol (Invitrogen). cDNA library was prepared using Superscript III kit (Invitrogen). RT-PCR was performed on a Roche light cycler.

[3] = tested on: DLD1, SW480, and HT29 cells; test: Quantitative PCR measuring DHRS9 (RDHL) expression in colon cancer cell lines; assay type: cell-based, human; conditions: pargyline 3 mM, FIG. 14B
wild type embryos = test: Quantitative RT-PCR in RA deficiency models; assay type: in vivo, zebrafish; conditions: DEAB treated wild type embryos; FIG. 11B
Procedure: (§2) Expression of genes are first normalized to 28S, and then to the control embryo mRNA/28S ratio, valued as 1. […] In panels A-C, expression of genes are normalized first to 28S (A-B) or 18S (C) and then to the control sample values as 1.
as §1

HT29 and DLD1 = test: Quantitative RT-PCR for AID, MBD4 and GADD45α in RA responsive colon carcinoma cell lines; assay type: cell-based; conditions: human colon cancer cell lines, ATRA 5 μM each day for two days; FIG. 11C
apc mutants (72 hpf) = test: MeDIP-qPCR for various genes in apc mutants; assay type: in vivo, zebrafish; conditions: apc mutant embryos treated with RA; FIG. 11D
Procedure: as §2
This procedure was described in Weber et al., 2007. Briefly, Dynabeads (conjugated with sheep anti-mouse secondary antibody, Invitrogen) were incubated with 10 μg of 5MeC antibody (Eurogentec) for 2 hrs, washed, and then incubated with 4 μg of sonicated DNA (300 bp-1000 bp fragments) overnight Immunoprecipitated DNA was amplified using for whole genome amplification kit (Sigma Aldrich). Following amplification, 2 μg of amplified DNA was labeled with Cy5, and 2 μg of input DNA was labeled with Cy3 (Bio labs). Samples were competitively hybridized to 244K oligonucleotide promoter arrays (Agilent Inc).

[4] = apc^mcr embryos, Table 6, apc^mcr 0%
[5] = apc^mcr embryos, Table 6, apc^sib 100%, apc^mcr 0%

## Mbd4 Mo: morpholino against zMbd4, 5′-AGAGAGAAACACACCTGCTCGCTGC-3′ (SEQ ID No. 8) (all phosphorodiamidate morpholino (PMO))
Zebrafish embryos
  Sox-2: embryos showing positive staining for the marker: 15% (n = 53)
  Neurogenin-1: embryos showing positive staining for the marker: 14% (n = 43)

## Gadd45α Mo: morpholino against Gadd45α, 5′-ATATAAAAACATACCTTTCCGTTGC-3′ (SEQ ID No. 4) (all phosphorodiamidate morpholino (PMO))
Zebrafish embryos
  Sox-2: embryos showing positive staining for the marker: 33% (n = 48)
  Neurogenin-1: embryos showing positive staining for the marker: 11% (n = 52)

## CC1=C(/C=C/C(C)=C/C=C/C(C)=C/C=O)C(C)(C)CCC1 [RAL]
[1]; apc^mcr embryos treated with exogenous RAL
  intestinal differentiation marked by fabp2 expression: partially restored
[1]; apc^mcr embryos, Table 5, apc^wt + Control Mo 99%, mutant + Control Mo 3%
  fabp2 (% of embryos): 59%

## Corest mo: morpholino 5′-CCTTCTCTAACATTGCGGGCATCTT-3′ (SEQ ID NO. 19) (all phosphorodiamidate morpholino (PMO))
[1]; [4]
  irbp (% of embryos): 11%
[1]; [5]
  fabp2 (% of embryos): 79%

## Pitx2 Mo: morpholino 5′-TTTATCAAACTTACTCGGACTCTGG-3′ (SEQ ID NO. 15) (all phosphorodiamidate morpholino (PMO))
[1]; apc^mcr embryos, Table 5, apc^wt + Control Mo 96%, mutant + Control Mo 17%
  cyclinD1 (% of embryos): 90%
[1]; apc^mcr embryos, Table 5, apc^wt + Control Mo 97%, mutant + Control Mo 10%
  Pcna (% of embryos): 85%

## C#CCN(C)Cc1ccccc1 [pargyline]
[2]; apc^mcr zebrafish embryos, pargyline 3 mM, FIG. 15A
  expression of rdh1l: rescued expression
[1]; apc^mcr zebrafish embryos, pargyline 3 mM
  expression of fabp2: rescued expression
[3]
  DHRS9 expression: upregulated

## AID Mo: morpholino against AID, 5′-GTTTTGTTTTCGCTTACCTGTCCAG-3′ (SEQ ID No. 1) (all phosphorodiamidate morpholino (PMO))
Zebrafish embryos
  Sox-2: embryos showing positive staining for the marker: 13% (n = 38)
  Neurogenin-1: embryos showing positive staining for the marker: 12% (n = 50)

## Groucho2 mo: morpholino 5′-GCCCTGTGGATACATCTTGAAATGT-3′ (SEQ ID NO. 17) (all phosphorodiamidate morpholino (PMO))
[1]; [4]
  irbp (% of embryos): 5%
[1]; [5]
  fabp2 (% of embryos): 95%
  rdh1l (% of embryos): 83%
  trypsin (% of embryos): 86%

## CCN(CC)c1ccc(C=O)cc1 [DEAB, 4-(diethylamino) benzaldehyde]
Wild type embryos
  expression of the demethylase genes: increased expression

## CC1=C(/C=C/C(C)=C/C=C/C(C)=C/C(=O)O)C(C)(C)CCC1 [ATRA, all-trans retinoic acid]
[2]; APC mutants, RA treatment, FIG. 12A
  Cebpβ expression: down regulated
[2]; apc mutants, RA treatment
  dnmt1 expression: did not restore
[2]; apc mutants
  expression of aid, gadd45α and mbd4: greatly reduced
[2]; apc^mcr mutant embryos, ATRA 1 μM, FIG. 12A
  expression of pou5f1: reduced the expression
[1]; apc^mcr embryos, Table 4
  gadd45α expression (% of embryos): 91%
  aid expression (% of embryos): 85%
  mbd4 expression (% of embryos): 65%
[1]; apc^mcr embryos, Table 4, apc^wt + DMSO 97%, apc^mcr + DMSO 11%
  dnmt1 expression (% of embryos): 89%
[1]; apc^mcr mutant, rdh1l morphant or nls mutant zebrafish treated with RA
  expression of aldh1a2: decreased the expression
HT29 and DLD1
  expression of the demethylase genes: suppressed expression
Apc mutants (72 hpf)
  DNA methylation on the panel of genes implicated in intestinal differentiation and proliferation: reversed the loss of DNA methylation

## CS(=O)(=O)Nc1ccc([N+](=O)[O-])cc1OC1CCCCC1 [Cox-2 inh, NS-398]
[2]; apc mutants
  expression of aid, gadd45α and mbd4: little effect
[1]; apc^mcr embryos, Table 4
  gadd45α expression (% of embryos): 8%
  aid expression (% of embryos): 20%
  mbd4 expression (% of embryos): 9%%

## Lsd1 mo: morpholino 5′-GGTCTGACTTCTTATTGGACAACAT-3′ (SEQ ID NO. 18) (all phosphorodiamidate morpholino (PMO))
[1]; [4]
  irbp (% of embryos): 8%
[1]; [5]
  fabp2 (% of embryos): 83%

## Pou5f1 Mo: morpholino 5′-CGCTCTCTCCGTCATCTTTCCGCTA-3′ (SEQ ID NO. 14) (all phosphorodiamidate morpholino (PMO))
[1]; apc^mcr embryos, Table 4
  gadd45α expression (% of embryos): 83%
  aid expression (% of embryos): 81%
  mbd4 expression (% of embryos): 67%
